The source of these data is ChEMBL document CHEMBL3045793, “The synthesis, anti-inflammatory and antimicrobial activity evaluation of novel thioanalogs of 3,4-dihydrothiopyrimidin-2(1H)-one derivatives of N-aryl urea” (2012).

Common to all, as to format: functional
One experiment deals with Aspergillus niger. The experiment is described as follows: Antifungal activity against Aspergillus niger by agar well diffusion method. (In agar diffusion tests the substance spreads into inoculated agar from a disc or well.)
Another experiment relates to Escherichia coli. The experiment is described as follows: Antibacterial activity against Escherichia coli by agar well diffusion method.
A further experiment relates to Candida albicans. Description: Antifungal activity against Candida albicans by agar well diffusion method.
Another experiment relates to Aspergillus flavus. Description: Antifungal activity against Aspergillus flavus by agar well diffusion method.
The subject of experiment [1] is THP-1. The experiment is described as follows: Anti-inflammatory activity in Homo sapiens (human) THP1 cells assessed as inhibition of LPS-induced IL-6 production preincubated at 10 uM for 30 min before LPS treatment measured after 24 hr by ELISA.
In another experiment the test system is Bacillus subtilis. The experiment is described as follows: Antibacterial activity against Bacillus subtilis by agar well diffusion method.
For a further experiment, the system named is Salmonella typhimurium. The experiment is described as follows: Antibacterial activity against Salmonella enterica subsp. enterica serovar Typhimurium by agar well diffusion method.
For a further experiment, the system named is Fusarium solani. Description: Antifungal activity against Fusarium solani by agar well diffusion method.
A further experiment relates to Staphylococcus aureus. Description: Antibacterial activity against Staphylococcus aureus by agar well diffusion method.
In experiment [2] the test system is THP-1. The experiment is described as follows: Anti-inflammatory activity in Homo sapiens (human) THP1 cells assessed as inhibition of LPS-induced TNF-alpha production preincubated at 10 uM for 30 min before LPS treatment measured after 24 hr by ELISA.

Converted amounts (≈) assume the structure as drawn.

Broadly, the MIC is the lowest concentration found to suppress growth. Higher therefore signals a need for much substance. The inhibition is how much of the control response was suppressed. For the molecule `CCOC(=O)C1=C(C)NC(=S)NC1c1ccc(NC(=S)Nc2ccc(C(F)(F)F)cc2Cl)cc1` (stereo not drawn), the MIC against Aspergillus niger amounted to 55 µg/mL (≈ 104 µM); in the experiment on Escherichia coli, 65 µg/mL (≈ 123 µM); against Candida albicans it was 50 µg/mL (≈ 94.5 µM); with Aspergillus flavus, 60 µg/mL (≈ 113 µM); with Bacillus subtilis, 55 µg/mL (≈ 104 µM); with Salmonella typhimurium it was 55 µg/mL (≈ 104 µM). Moreover, the MIC in the experiment with Fusarium solani and in the experiment with Staphylococcus aureus was 90 µg/mL (≈ 170 µM) in each case. The inhibition at 10 µM with THP-1 [1] stood at 68%; in the experiment on THP-1 [2], 55%.

As to `Clc1ccc(COC(Cn2ccnc2)c2ccc(Cl)cc2Cl)c(Cl)c1` (stereo not drawn) [MICONAZOLE], the MIC in the experiment on Aspergillus niger is 20 µg/mL (≈ 48.1 µM); in the experiment on Candida albicans, 25 µg/mL (≈ 60.1 µM); against Aspergillus flavus, 20 µg/mL (≈ 48.1 µM); in the experiment with Fusarium solani, 15 µg/mL (≈ 36 µM).

With `CCOC(=O)C1=C(C)NC(=S)NC1c1ccc(NC(=S)Nc2ccccc2F)cc1` (stereo not drawn), the MIC was 10 µg/mL (≈ 22.5 µM) against Aspergillus niger; 10 µg/mL (≈ 22.5 µM) in the experiment on Escherichia coli; 10 µg/mL (≈ 22.5 µM) with Candida albicans; 15 µg/mL (≈ 33.7 µM) against Aspergillus flavus; 25 µg/mL (≈ 56.2 µM) in the experiment with Bacillus subtilis; 15 µg/mL (≈ 33.7 µM) in the experiment on Salmonella typhimurium. Moreover, the MIC against Fusarium solani is 15 µg/mL (≈ 33.7 µM); against Staphylococcus aureus, 10 µg/mL (≈ 22.5 µM). The inhibition at 10 µM worked out at 22% in the experiment on THP-1 [1] and 0% in the experiment with THP-1 [2].

Turning to `CCOC(=O)C1=C(C)NC(=S)NC1c1ccc(NC(=S)Nc2c(F)cccc2C(F)(F)F)cc1` (stereo not drawn), the MIC in the experiment with Aspergillus niger worked out at 30 µg/mL (≈ 58.5 µM); against Escherichia coli, 40 µg/mL (≈ 78 µM); in the experiment with Candida albicans, 55 µg/mL (≈ 107 µM); against Aspergillus flavus it was 80 µg/mL (≈ 156 µM); in the experiment on Bacillus subtilis, 55 µg/mL (≈ 107 µM); against Salmonella typhimurium, 45 µg/mL (≈ 87.8 µM). Also, the MIC turned out to be 45 µg/mL (≈ 87.8 µM) in the experiment with Fusarium solani and 35 µg/mL (≈ 68.3 µM) with Staphylococcus aureus. Besides, the inhibition at 10 µM in the experiment with THP-1 [1] is 30%; in the experiment on THP-1 [2] it was 0%.

As to `CCOC(=O)C1=C(C)NC(=S)NC1c1ccc(NC(=O)Nc2ccccc2Oc2ccccc2)cc1` (stereo not drawn), the MIC with Aspergillus niger is 60 µg/mL (≈ 119 µM); with Escherichia coli, 85 µg/mL (≈ 169 µM); in the experiment with Candida albicans it was 40 µg/mL (≈ 79.6 µM); against Aspergillus flavus it was 35 µg/mL (≈ 69.6 µM); against Bacillus subtilis, 60 µg/mL (≈ 119 µM); against Salmonella typhimurium it was 65 µg/mL (≈ 129 µM). Also, the MIC came to 45 µg/mL (≈ 89.5 µM) against Fusarium solani and 55 µg/mL (≈ 109 µM) in the experiment with Staphylococcus aureus. Also, the inhibition at 10 µM in the experiment on THP-1 [1] was determined as 42%; with THP-1 [2], 0%.

As to `CCOC(=O)C1=C(C)NC(=S)NC1c1ccc(N)cc1` (stereo not drawn), the MIC against Aspergillus niger came to 55 µg/mL (≈ 189 µM); with Escherichia coli it was 40 µg/mL (≈ 137 µM); with Candida albicans it was 55 µg/mL (≈ 189 µM); against Aspergillus flavus, 80 µg/mL (≈ 275 µM); with Bacillus subtilis, 85 µg/mL (≈ 292 µM); in the experiment on Salmonella typhimurium, 45 µg/mL (≈ 154 µM). In addition, the values for the MIC against Fusarium solani and with Staphylococcus aureus were 35 µg/mL (≈ 120 µM) and 60 µg/mL (≈ 206 µM), respectively. For the same molecule, the inhibition at 10 µM in the experiment with THP-1 [1] was found to be 3%; in the experiment with THP-1 [2], 0%.

On to `CCOC(=O)C1=C(C)NC(=S)NC1c1ccc([N+](=O)[O-])cc1` (stereo not drawn), for which the MIC in the experiment on Aspergillus niger was found to be 65 µg/mL (≈ 202 µM); against Escherichia coli, 45 µg/mL (≈ 140 µM); against Candida albicans, 30 µg/mL (≈ 93.4 µM); against Aspergillus flavus, 65 µg/mL (≈ 202 µM); against Bacillus subtilis, 55 µg/mL (≈ 171 µM); in the experiment with Salmonella typhimurium, 30 µg/mL (≈ 93.4 µM). In addition, the MIC is 75 µg/mL (≈ 233 µM) against Fusarium solani and 40 µg/mL (≈ 124 µM) in the experiment on Staphylococcus aureus. The inhibition at 10 µM in the experiment with THP-1 [1] came out at 3%; in the experiment with THP-1 [2], 0%.

Take `CCOC(=O)C1=C(C)NC(=S)NC1c1ccc(NC(=S)Nc2ccc(C(C)C)cc2)cc1` (stereo not drawn): the minimum inhibitory concentration (MIC) came out at 80 µg/mL (≈ 171 µM) against Aspergillus niger; 90 µg/mL (≈ 192 µM) against Escherichia coli; 80 µg/mL (≈ 171 µM) against Candida albicans; 95 µg/mL (≈ 203 µM) against Aspergillus flavus; 55 µg/mL (≈ 117 µM) against Bacillus subtilis; 90 µg/mL (≈ 192 µM) against Salmonella typhimurium. Also, the MIC against Fusarium solani and in the experiment with Staphylococcus aureus was 70 µg/mL (≈ 149 µM) each time. Besides, the inhibition at 10 µM in the experiment on THP-1 [1] came out at 90%; in the experiment on THP-1 [2], 61%.

For `CCOC(=O)C1=C(C)NC(=S)NC1c1ccc(NC(=S)Nc2cccc(C(F)(F)F)c2)cc1` (stereo not drawn), the MIC in the experiment with Aspergillus niger came out at 25 µg/mL (≈ 50.5 µM); against Escherichia coli it was 20 µg/mL (≈ 40.4 µM); with Candida albicans, 15 µg/mL (≈ 30.3 µM); in the experiment on Aspergillus flavus, 15 µg/mL (≈ 30.3 µM); in the experiment on Bacillus subtilis, 35 µg/mL (≈ 70.8 µM); against Salmonella typhimurium, 15 µg/mL (≈ 30.3 µM). The MIC in the experiment on Fusarium solani was found to be 15 µg/mL (≈ 30.3 µM); against Staphylococcus aureus, 20 µg/mL (≈ 40.4 µM). Also, the inhibition at 10 µM with THP-1 [1] turned out to be 16%; in the experiment with THP-1 [2] it was 0%.

With `O=C(O)c1cn(C2CC2)c2cc(N3CCNCC3)c(F)cc2c1=O` [CIPROFLOXACIN], the MIC was 15 µg/mL (≈ 45.3 µM) in the experiment on Escherichia coli, 25 µg/mL (≈ 75.4 µM) in the experiment on Bacillus subtilis and 25 µg/mL (≈ 75.4 µM) in the experiment on Salmonella typhimurium.

On to `CCOC(=O)C1=C(C)NC(=S)NC1c1ccc(NC(=S)Nc2ccc(C(F)(F)F)cc2)cc1` (stereo not drawn), for which the MIC in the experiment with Aspergillus niger is 10 µg/mL (≈ 20.2 µM); with Escherichia coli, 10 µg/mL (≈ 20.2 µM); against Candida albicans, 10 µg/mL (≈ 20.2 µM); in the experiment on Aspergillus flavus, 15 µg/mL (≈ 30.3 µM); against Bacillus subtilis, 15 µg/mL (≈ 30.3 µM); in the experiment with Salmonella typhimurium, 30 µg/mL (≈ 60.7 µM). The MIC in the experiment with Fusarium solani and against Staphylococcus aureus was 10 µg/mL (≈ 20.2 µM) in each case. In addition, the inhibition at 10 µM with THP-1 [1] came out at 48%; in the experiment on THP-1 [2], 8%.

Turning to `CCOC(=O)C1=C(C)NC(=S)NC1c1ccc(NC(=S)Nc2c(C)cccc2Cl)cc1` (stereo not drawn), the MIC was found to be 90 µg/mL (≈ 189 µM) in the experiment with Aspergillus niger; 65 µg/mL (≈ 137 µM) in the experiment on Escherichia coli; 65 µg/mL (≈ 137 µM) against Candida albicans; 60 µg/mL (≈ 126 µM) in the experiment on Aspergillus flavus; 80 µg/mL (≈ 168 µM) in the experiment on Bacillus subtilis; 65 µg/mL (≈ 137 µM) in the experiment on Salmonella typhimurium. Further, the MIC against Fusarium solani was found to be 60 µg/mL (≈ 126 µM); against Staphylococcus aureus it was 40 µg/mL (≈ 84.2 µM). The figures for the inhibition at 10 µM with THP-1 [1] and in the experiment with THP-1 [2] were 55% and 32%, respectively.

In the case of `CCOC(=O)C1=C(C)NC(=S)NC1c1ccc(NC(=S)Nc2ccccc2C(F)(F)F)cc1` (stereo not drawn), the MIC in the experiment with Aspergillus niger amounted to 50 µg/mL (≈ 101 µM); in the experiment on Escherichia coli, 15 µg/mL (≈ 30.3 µM); against Candida albicans, 20 µg/mL (≈ 40.4 µM); against Aspergillus flavus it was 20 µg/mL (≈ 40.4 µM); with Bacillus subtilis it was 10 µg/mL (≈ 20.2 µM); against Salmonella typhimurium it was 40 µg/mL (≈ 80.9 µM). Moreover, the MIC against Fusarium solani amounted to 20 µg/mL (≈ 40.4 µM); against Staphylococcus aureus, 10 µg/mL (≈ 20.2 µM). Moreover, the inhibition at 10 µM in the experiment on THP-1 [1] was determined as 18%; with THP-1 [2], 8%.

`CCOC(=O)C1=C(C)NC(=S)NC1c1ccc(NC(=S)Nc2ccccc2OC(F)(F)F)cc1` (stereo not drawn): the MIC was 30 µg/mL (≈ 58.8 µM) in the experiment with Aspergillus niger; 35 µg/mL (≈ 68.6 µM) with Escherichia coli; 10 µg/mL (≈ 19.6 µM) against Candida albicans; 15 µg/mL (≈ 29.4 µM) against Aspergillus flavus; 20 µg/mL (≈ 39.2 µM) against Bacillus subtilis; 10 µg/mL (≈ 19.6 µM) in the experiment on Salmonella typhimurium. The MIC in the experiment on Fusarium solani came out at 10 µg/mL (≈ 19.6 µM); with Staphylococcus aureus, 45 µg/mL (≈ 88.1 µM). The values for the inhibition at 10 µM in the experiment on THP-1 [1] and in the experiment with THP-1 [2] were 54% and 27%, respectively.

Take `CCOC(=O)C1=C(C)NC(=S)NC1c1ccc(NC(=S)Nc2ccc(OC)cc2)cc1` (stereo not drawn): the minimum inhibitory concentration (MIC) in the experiment on Escherichia coli came to 10 µg/mL (≈ 21.9 µM); in the experiment with Bacillus subtilis, 40 µg/mL (≈ 87.6 µM); with Salmonella typhimurium it was 25 µg/mL (≈ 54.8 µM); in the experiment on Staphylococcus aureus it was 10 µg/mL (≈ 21.9 µM). In addition, the inhibition at 10 µM in the experiment with THP-1 [1] worked out at 48%; in the experiment on THP-1 [2], 0%.

Take `CCOC(=O)C1=C(C)NC(=S)NC1c1ccc(NC(=S)Nc2ccccc2Cl)cc1` (stereo not drawn): the MIC was 10 µg/mL (≈ 21.7 µM) in the experiment with Aspergillus niger; 10 µg/mL (≈ 21.7 µM) against Escherichia coli; 10 µg/mL (≈ 21.7 µM) in the experiment with Candida albicans; 15 µg/mL (≈ 32.5 µM) in the experiment on Aspergillus flavus; 35 µg/mL (≈ 75.9 µM) against Bacillus subtilis; 20 µg/mL (≈ 43.4 µM) against Salmonella typhimurium. The MIC was 10 µg/mL (≈ 21.7 µM) against Fusarium solani and 20 µg/mL (≈ 43.4 µM) with Staphylococcus aureus. In addition, the inhibition at 10 µM in the experiment with THP-1 [1] was 36%; in the experiment on THP-1 [2], 0%.
